According to US12428443B2, “Abiraterone precursor compound and preparation method and use thereof” (SUZHOU AIHE PHARMACEUTICAL TECHNOLOGY CO., LTD., priority 2021, dated 2025):
Read-outs that look alike come from different tables or passages of the source.

Experiments:
LNCAP clone FGC = test: CellTiter-Glo chemiluminescent cell viability assay (CTG method), LNCAP; format: cell-based; conditions: LNCAP cells, 72 h; for IC50: read-out: Absolute IC50
Method: (§1) Half-maximal inhibitory concentrations (IC50) of abiraterone acetate and LHY-AB614 for proliferation of LNCAP clone FGC and VCAP were assessed by a CellTiter-Glo® chemiluminescent cell viability assay (namely, a CTG method). Cells in an exponential phase were collected, and live cells were counted. Each cell suspension was adjusted with a corresponding medium to an appropriate concentration. 90 μL of a cell suspension was added to each well of a 96-well plate and cultivated in a 37° C. and 5% CO2 incubator for 24 h. A sample to be tested was dissolved in DMSO to prepare a stock solution with a starting concentration of 50 μM, and the stock solution was 3-fold diluted with a medium to obtain 10× working solutions with 9 concentrations. Cisplatin, as a reference compound, was dissolved in DMSO to prepare a stock solution with a starting concentration of 100 μM, and the stock solution was 3-fold diluted with a medium to obtain 10× working solutions with 9 concentrations. 10 μL of a working solution was added to cells in each well, and then the cells were cultivated in a 37° C. and 5% CO2 incubator for 72 h. The 96-well plate was equilibrated at room temperature for about 30 min, then 50 μL of a CTG solution was added to each well, and the 96-well plate was shaken on a microplate shaker for 2 min to perform cell lysis and placed at room temperature for 20 min to stabilize a fluorescence signal. A fluorescence signal value was determined with an Envision2104 plate reader. On the GraphPad Prism software, a nonlinear regression model was used to plot an S-type dose-response curve and calculate an IC50 value.

VCAP = test: CellTiter-Glo chemiluminescent cell viability assay (CTG method), VCAP; format: cell-based; conditions: VCAP cells, 72 h; for IC50: read-out: Absolute IC50
Method: as §1

[1] = Solubility test in normal saline; format: physicochemical; conditions: saline or isotonic, thermodynamic from solid
Method: 200 mg of LHY-AB614-622 was weighed, and 1 mL of normal saline was added.
2 mg of abiraterone acetate was weighed and dissolved in 1 mL of normal saline, a resulting solution was stirred overnight and then subjected to suction filtration, and a resulting filtrate was subjected to HPLC analysis. Abiraterone acetate was dissolved in methanol to prepare a 0.1 mg/mL solution as a control.

[2] = Comparative study of pharmacokinetic properties in Beagle dogs (oral); format: in vivo
Method: Four healthy Beagle dogs with body weights in a range of 6 kg to 8 kg were selected. The Beagle dogs were fasted for 12 h the day before an experiment, and all were given a low-fat standard meal after administration. The Beagle dogs should not be administered with other drugs two weeks before the experiment and during the experiment. The four Beagle dogs were randomly divided into a group A and a group B (2 dogs in each group). LHY-AB614 was administered orally at a dose of 46.8 mg/kg (32.2 mg/kg based on abiraterone), and abiraterone acetate was administered orally at a dose of 42.3 mg/kg (37.8 mg/kg based on abiraterone). Blank blood was collected in an EDTA-K2 anticoagulation tube before administration, and at 0.25 h, 0.5 h, 1.0 h, 2.0 h, 4.0 h, 6.0 h, 8.0 h, and 24.0 h after administration, 1 mL of blood was collected in EDTA-K2 anticoagulation tubes. After blood was fully mixed with an anticoagulant, each of the anticoagulation tubes was immediately placed in ice and centrifuged as soon as possible to isolate plasma, and the isolated plasma was stored in labeled EP tubes. 50 μL of a plasma sample was taken, 300 μL of a 10 ng/mL carbamazepine-containing acetonitrile solution was added for protein precipitation, and a resulting mixture was vortexed for 5 min and then centrifuged in a centrifuge at 5,500 g for 10 min; and 100 μL of a resulting supernatant was taken, 300 μL of 50%-methanol water was added for dilution, a resulting dilution was vortexed, and 5 μL of a vortexed dilution was injected. In vivo drug concentrations of LHY-AB614, abiraterone acetate, and abiraterone were determined by HPLC-MS/MS.

[3] = cited from earlier work
[4] = Beagle, dog, in vivo, po, 46.8 mg/kg

## CC(=O)O[C@H]1CC[C@@]2(C)C(=CC[C@@H]3[C@@H]2CC[C@]2(C)C(c4cccnc4)=CC[C@@H]32)C1 [Abiraterone acetate, abiraterone acetate]
LNCAP clone FGC; Homo sapiens, LNCaP-Clone-FGC
  IC50: 15.5 µM
LNCAP clone FGC
  Max inhibition: 78.30%
VCAP; Homo sapiens
  IC50: > 50 µM
VCAP
  Max inhibition: 29.43%
[1]
  solubility: < 100 µg/mL
[2]; oral, Beagle dogs, plasma, HPLC-MS/MS
  species detected in vivo after administration: Only abiraterone is detected in vivo
[3]; combination with prednisone versus placebo and prednisone
  death risk reduced: 35%
[3]; combination with prednisone, p<0.0001
  median survival time prolonged versus placebo and prednisone: 3.9 months
[3]; patient treated with a combination of abiraterone acetate and prednisone
  median survival time: 14.8 months

## N.N.[Cl][Pt][Cl] [Cisplatin]
LNCAP clone FGC
  Max inhibition: 97.49%
  IC50: 12.8 µM
VCAP
  Max inhibition: 85.02%
  IC50: 40.3 µM

## CN(C)CCOCCOC(=O)O[C@H]1CC[C@@]2(C)C(=CC[C@@H]3[C@@H]2CC[C@]2(C)C(c4cccnc4)=CC[C@@H]32)C1 [Compound represented by formula I]
LNCAP clone FGC; Homo sapiens, LNCaP-Clone-FGC
  IC50: 3.2 µM
LNCAP clone FGC
  Max inhibition: 99.49%
VCAP; Homo sapiens
  IC50: 5.7 µM
VCAP
  Max inhibition: 99.31%

## CN(C)CCOCCOC(=O)O[C@H]1CC[C@@]2(C)C(=CC[C@@H]3[C@@H]2CC[C@]2(C)C(c4cccnc4)=CC[C@@H]32)C1 [LHY-AB614]
LNCAP clone FGC; Homo sapiens, LNCaP-Clone-FGC
  IC50: 3.2 µM
VCAP; Homo sapiens
  IC50: 5.7 µM
[2]; Beagle, dog, in vivo, po
  species detected in vivo after administration: LHY-AB614 and abiraterone both can be detected in vivo
[2]; [4]
  AUC0-inf: 6186 ng·h/mL
  AUC0-t: 6116 ng·h/mL
  AUC(0-inf): 1060 ng·h/mL
  AUC(0-t): 908 ng·h/mL
  Cls, app: 757
  T1/2: 3.7 h
  Tmax: 1.5 h
  half-life: 6.8 h
[2]; dog, in vivo, po
  AUC compared with the administration of abiraterone acetate: significantly increases
  Cmax of abiraterone compared with Cmax of LHY-AB614: much higher
  Cmax of abiraterone compared with the administration of abiraterone acetate: significantly increases
  Tmax compared with the administration of abiraterone acetate: does not change
